“Also recorded” adds a separate entry of the source. Values belong to the substance of their own block, whether it stands above or below them. Bridge positions count the residues as written; N and C are the ends. Ends that are not written are not given here.
Assays:
CXCR4 = molecular target: T1, CXCR4 (Homo sapiens, UniProt P61073); assay: Inositol 1 phosphate (IP1) accumulation assay (HTRF) in COS-7 cells transfected with CXCR4; type: cell-based; settings: COS-7 transiently co-transfected with CXCR4-eYFP and chimeric GαΔ6qi4myr; stimulation 1 h, 37 °C, triplicate; HTRF; n ≥ 2 independent experiments; read-out: EC50 (CXCR4 activation, IP1 accumulation)
T1 construct: expressed in transfected cells; host or cells: COS-7 (African green monkey), transient co-transfection with GαΔ6qi4myr
Source text: CXCR4 is a member of the G protein-coupled receptor (GPCR) family[58] and proposed as a target receptor for TFF3 to mediate wound healing.[30],[39] We therefore pharmacologically characterized TFF3(C^57Acm) and TFF3 homodimer at CXCR4. We used a chimeric Gαiq protein to switch the pathway to the Gαq signaling, which leads to the activation of the phospholipase and allows measurement of CXCR4 activation through the production of inositol 1 phosphate (IP1).[61]−[63] We measured IP1 accumulation upon stimulation with TFF3(C^57Acm) and TFF3 homodimer in fibroblast-like COS-7 cells transiently transfected with CXCR4.[58] This is a competitive immunoassay, based on the HTRF technology, where native IP1 produced by cells compete with labeled IP1 (acceptor) for binding to anti-IP1-cryptate (donor). The specific signal (i.e., Förster resonance energy transfer, FRET) is inversely proportional to the concentration of IP1 in the sample. The calculation of the fluorescence ratio eliminates possible medium interferences.[64]
COS-7 cells (fibroblast-like cells from African green monkey) were transiently co-transfected with the CXCR4 C-terminally fused to eYFP in pVitro2 vector and the untagged chimeric G protein GαΔ6qi4myr in pcDNA3.1 plasmid using Metafectene Pro according to manufacturer’s protocol. The cells were cultured in DMEM with higher glucose and supplemented with 10% FCS without any antibiotics at 37 °C and 5% CO2 in 95% humidity. Cisbio IP-One Gq assay kit was used according to previous description with minor modifications to measure activity.[80] Briefly, a standard curve was prepared in HBSS (Hanks’ balanced salt solution) with 20 mM LiCl to determine the linear range of the assay and 10 000 cells/well were cultured overnight in a 384-well flat white plate (Greiner Bio-one GmbH, Frickenhausen, Germany). TFF3 and its homodimer as well as CXCL12 were diluted in HBSS containing 20 mM LiCl. Stimulation was carried out for 1 h in triplicate at 37 °C. Subsequently, 3 μL of IP1-d2 and 3 μL of Ab-cryptate in lysis buffer were added to the wells and incubated on a tumbler for 60 min at 25 °C. Fluorescence was then measured at 620 and 665 nm and the HTRF (homogeneous time-resolved fluorescence) ratio (665/620 nm) was calculated. Data analysis was performed with Prism (version 7, GraphPad, La Jolla). Tested compounds were normalized to CXCL12 wild type, with the highest HTRF ratio set to 0% and the lowest HTRF ratio set to 100% response. […] The final concentration range of 10^–12 to 10^–5 M to CXCL12 and 1 or 10 μM to TFF3(C^57Acm) and TFF3 homodimer was achieved by adding the compounds from a threefold concentrated stock solution.

pepsin = assay: simulated gastric fluid (SGF, containing pepsin, pH 1.3); settings: porcine, 37 °C, up to 24 h
porcine pancreatin = assay: simulated intestinal fluid (SIF, containing pancreatic enzymes, pH 6.8); settings: 37 °C, up to 24 h
trypsin = assay: trypsin
[1] = Stability in simulated gastric fluid (SGF); type: in vitro ADME, porcine
Protocol: (§1) We exposed TFF3(C^57Acm) and TFF3 homodimer to simulated gastric fluid (SGF, containing pepsin, pH 1.3) and simulated intestinal fluid (SIF, containing pancreatic enzymes, pH 6.8), and monitored the mixture over 24 h by analytical RP-HPLC and MS. The N- and C-termini of TFF3 and its homodimer were readily truncated in both SGF and SIF (Figure 4A,B). In SGF, TFF3 was cleaved at Leu^6/Ser^7 followed by cleavage at Glu^54/Ala^55 (t1/2 < 5 min). In SIF, TFF3 was cleaved first at Thr^58/Phe^59 followed by cleavage at Leu^6/Ser^7, Glu^56/Cys^57, and Ala^55/Glu^56 (t1/2 < 5 min). TFF3 homodimer, in both SGF (t1/2 ∼ 40 min) and SIF (t1/2 < 5 min), was first broken down to monomeric TFF3 through simultaneous cleavage at Leu^6 and Glu^54 or Ala^55, eventually leading to the same metabolites as TFF3 (Figure 4B).
(§2) Simulated gastric fluid (SGF) was prepared by dissolving 20 mg of NaCl and 8 mg of pepsin in 70 μL of concentrated HCl (32%), and the volume was diluted to 10 mL with Milli-Q water (pH 1.3).[76],[77] Simulated intestinal fluid (SIF) was prepared by dissolving 68 mg of KH2PO4 in 500 μL of Milli-Q water followed by the addition of 800 μL of 0.2 M NaOH and 100 mg of porcine pancreatin, and the volume was adjusted to 10 mL with Milli-Q water (pH 6.8).[76],[77] Peptide stock solution (1 mM; 15 μL) was added to SGF (285 μL) or SIF (285 μL) and incubated at 37 °C. Samples (30 μL) from SGF and SIF were taken at 0, 5, 15, and 30 min and 1, 2, 4, 8, and 24 h timepoints and subsequently quenched with 30 μL of 0.2 M Na2CO3 (SGF) or 30 μL of 5% aqueous TFA (SIF). The samples were analyzed by analytical RP-HPLC (30 μL) and/or LC-MS (20 μL). The amount of peptide remaining was determined by measuring the peak area and expressing it as a % of the peak area at time 0. Peptide half-life (t1/2) was determined from the peptide degradation profiles using an exponential one-phase decay fit in Prism (version 7, GraphPad, La Jolla). LC-MS analysis was performed in a Q-Star Pulsar mass spectrometer (SCIEX, Ontario, Canada), and the raw data spectra were processed using the peptide reconstruction tool in the BioAnalyst software to identify the mass of the metabolites. The stability of the disulfide bonds was assessed through incubation of the peptides (10 μM) with 10 equiv of reduced glutathione (GSH; 100 μM) in sodium phosphate (50 mM) buffer at pH 7.2. Samples were taken at timepoints 0, 4, 8, and 24 h, quenched by adding 10% TFA, and analyzed by analytical RP-HPLC using an analytical C3 column (Agilent Zorbax SB-C3, 5 μm, 2.1 mm × 250 mm, 300 Å).

SH-SY5Y cells = assay: Antiapoptotic assay (etoposide-induced cell death, caspase-3/7 activity); type: cell-based, human; settings: etoposide 10 μM and peptide 10 μM added at the same time, caspase-3/7 activity after 6 h, n ≥ 3 independent experiments
Protocol: (A) Cell death was induced with etoposide (10 μM), and cells were treated with 10 μM of TFF3. Etoposide and TFF3 were added at the same time. Caspase-3/7 activity was measured after 6 h. […] Z-DEVD-FMK (50 μM; caspase-3 inhibitor) was used as the positive control. E: etoposide, E + C3I: etoposide + caspase-3 inhibitor. One-way analysis of variance (ANOVA) followed by Dunnett correction was performed to assess differences between treated cells and etoposide only. *p < 0.05, **p < 0.01.
SH-SY5Y cells were seeded (13–15 × 10^3 cells/well) in 96-well microplates in DMEM with 10% (v/v) fetal calf serum (FCS; Gibco), 2 mM L-glutamine, and 100 units/mL penicillin/streptomycin. The media was replaced with low riboflavin, complete Ham’s F12 medium with 10% (v/v) fetal calf serum, 2 mM L-glutamine, and 100 units/mL penicillin/streptomycin before the live-cell imaging. Cells were treated with the etoposide or the caspase-3 inhibitor or TFF3(C^57Acm) or TFF3 homodimer in the presence of IncuCyte caspase-3/7 green apoptosis reagent. Data were acquired using an IncuCyte ZOOM instrument with standard scan type setting (4 images per well) every 2 h for 48 h.

[2] = Stability in simulated intestinal fluid (SIF); type: in vitro ADME; settings: pig, simulated intestinal fluid (SIF) with porcine pancreatin
Protocol: as §1, §2

T1 sequence (P61073 whole entry): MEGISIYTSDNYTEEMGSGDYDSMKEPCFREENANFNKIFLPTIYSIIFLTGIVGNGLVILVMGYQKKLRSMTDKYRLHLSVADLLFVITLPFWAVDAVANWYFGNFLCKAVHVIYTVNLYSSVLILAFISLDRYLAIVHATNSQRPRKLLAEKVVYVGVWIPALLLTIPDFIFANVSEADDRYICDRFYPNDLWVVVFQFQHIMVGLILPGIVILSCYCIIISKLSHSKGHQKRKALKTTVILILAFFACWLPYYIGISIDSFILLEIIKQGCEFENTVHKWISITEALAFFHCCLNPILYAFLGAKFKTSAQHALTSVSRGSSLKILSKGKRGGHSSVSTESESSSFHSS

Substance: CXCL12: natural CXCR4 ligand; recombinant human CXCL12 from E. coli with additional N-terminal methionine; positive control [reference compound]
- EC50 (CXCR4): 5.9 nM

Substance: EEYVGLSANQCAVPAKDRVDCGYPHVTPKECNNRGCCFDSRIPGVPWCFKPLQEAEC(Acm)TF
- cleaved bond (pepsin): Leu6-Ser7, first_seen; also recorded: Glu54-Ala55
- cleaved bond (porcine pancreatin): Thr58-Phe59, first_seen; also recorded: Leu6-Ser7; also recorded: Glu56-Cys57; also recorded: Ala55-Glu56

Substance: SANQCAVPAKDRVDCGYPHVTPKECNNRGCCFDSRIPGVPWCFKPLQE-NH2 (disulfide 5-31, 15-30, 25-42) [TFF3_7-54]
- stability in SGF over 24 h (in words) ([1]; SGF with pepsin, pH 1.3, 37 °C, 24 h, RP-HPLC and MS): remained stable
- half-life at 50 μM ([1]; simulated gastric fluid (SGF) with pepsin, pH 1.3, 15 μL of 1 mM stock in 285 μL, 37 °C, monitored over 24 h, RP-HPLC/LC-MS, read-out: half-life in SGF): > 24 h
- reduction of etoposide-induced cell death (caspase-3/7 active objects) (SH-SY5Y cells): active in the anti-apoptosis assay, equivalent to TFF3 and TFF3 homodimer
- half-life at 50 μM ([2]; pH 6.8, 15 μL of 1 mM stock in 285 μL, 37 °C, monitored over 24 h, RP-HPLC/LC-MS, read-out: half-life in SIF): > 24 h
- metabolised at 24 h, 50 μM ([2]; pH 6.8, 37 °C, 24 h, RP-HPLC/MS, read-out: degradation in SIF within 24 h): ~25%

Substance: S^7ANQCAVPAKDRVDCGYPHVTPKECNNRGCCFDSRIPGVPWCFKPLQEA^55
- not cleaved (porcine pancreatin): remained stable even after 24 h

Continued, in another order:

- not cleaved (pepsin): stable in SGF for 24 h
Substance: QCAVPAKDRVDCGYPHVTPKECNNRGCCFDSRIPGVPWCFK
- cleaved bond (trypsin): cleavages at Lys^16, Arg^18, and Arg^41; also recorded: Arg41-Ile42
- fragment found (trypsin): Glu^30-Arg^34; also recorded: Ile^42-Lys^50

- not cleaved (pepsin): stable in SGF with a half-life over 24 h
Substance: SANQCAVPAKDRVDCGYPHVTPKECNNRGCCFDSRIPGVPWCFKPLQE

— article PMC8273887 (Journal of Medicinal Chemistry, 2021)
